According to US12655092B2, “Precursor compounds of ester compounds” (University of Guelph, priority 2019, dated 2026):
Values joined by “and” are separate entries in the source; they are usually repeats but may differ in a detail not shown here. Equal values may be shown once. Marks after values point to notes of the source that are not given here.

What was measured:
[1] = Storage stability of the precursor at 25° C. under 0, 60 and 100% RH (EF release after storage); format: physicochemical
Description: The stability of the precursor was studied over a period of 30 days. The precursor was stored at 25° C. under 0, 60, and 100% RH. An environmental chamber (MLR-350H, Sanyo Electric Co., Ltd. Japan) was used to control the humidity levels and temperature. Samples from each condition were tested for EF release at 1, 15, and 30th day at 25° C. using 0.1 N citric acid solution as described above.

[2] = tested on: spotted-wing Drosophila (SWD) adults; test: Mortality of adult SWD on blueberries exposed to EF vapor released from the precursor; format: in vivo
Description: The EF precursor from Example 1 was activated using an acid-dispersed substrate (acidified substrate prepared in Example 1) and the moisture generated from fruit respiration to release EF vapor. In a model system utilized spotted-wing Drosophila (SWD), an invasive insect pest of many fruit crops, as the surrogate test organism. The mortality of adult SWD on blueberries was evaluated when they were exposed to the EF vapor released from the precursor. Different amounts of the EF precursor (2.5, 5.0, and 7.5 mg) were activated using the citric acid-dispersed substrate to release 1, 2, and 3 mg of EF, respectively, in a sealed 1 L glass jar containing 0, 20 or 40 g of blueberries and 10 adult SWD.

[3] = EF release from the precursor activated with 0.1 N citric acid solution, headspace GC analysis; format: physicochemical; settings: for EF released: after 120 min
Description: (§1) The cumulative release of EF from the precursor was determined using an automatic headspace analysis system (FIG. 1). The system comprising of an environmental chamber (MLR-350H, Sanyo Electric Co., Ltd. Japan), a gas chromatograph (GC 6890, Agilent Technologies Inc., Santa Clara, CA, USA) equipped with a flame ionization detector (FID), stream selection valves (EMTCA-CE, VICI Valco Inst., Houston, TX, USA), 1/16 stainless steel tubing, and a control board (SRI Instruments Inc., Las Vegas, Nev., USA). The capillary column used with the GC was Agilent J&W DB-624 (Agilent Technologies Inc., Santa Clara, CA, USA) with 30 m length, 0.53 mm I.D, and 3 μm film thickness. The temperature of the detector and the oven were 200° C. and 40° C., respectively. The flow rates of N2, H2, and O2 were 30, 50, and 200 mL/min, respectively. The calibration curve was prepared by measuring standard headspace concentration of a known amount of EF. Chromatograms were analyzed using the Peak Simple software (393-32 bit, SRI Instruments, CA, USA). At any given sampling point, the total amount of EF released into the headspace (Mt, μL) was determined according to Eqs. 5 to 7 by the addition of the recorded amount (Mr, μL) and the accumulated loss (Ml, μL) of all the previous sampling points up to that point.
To activate the release of EF, two approaches were evaluated. In the first approach, 1-2 mg of the precursor was placed in a 10 mL, glass beaker inside a hermetically sealed 1 L, glass jar as shown in FIG. 1. The headspace gas was extracted through a septum attached to the jar lid at predetermined time intervals. EF release was triggered by distributing 1 mL of 0.1 N citric acid on the precursor particles using a pipette (Fisher Scientific, Ottawa, ON, Canada) just before closing the jar and attaching it to the sampling needle. The release of EF from the precursor was studied at 5, 15, and 25° C.
(§2) The release kinetics of EF from its precursor were modeled using an empirical pseudo-first order reaction kinetic model:
(§3) [formula] where Ce is the concentration of EF in the headspace of the 1 L test jar at an infinite time; C is the EF released at time, t; C0 is the EF initial concentration (which was equal to zero in our case); and k is the release rate constants. Non-linear regression analyses were conducted to fit the release data and determine the model parameters. Results and Discussion Ethyl Formate Precursor Formation

[4] = EF release from the precursor on citric acid-acidified nonwoven substrate at different RH, headspace GC analysis; format: physicochemical; settings: 25° C.; for Ce / k: fitted model
Description: as §1
In the second study, the release of EF was evaluated using an acidified substrate which was prepared by impregnating 0.3 mL of 5% (w/v) citric acid/anhydrous ethanol solution into a 3×3 cm spun-bound polypropylene nonwoven, followed by drying it overnight at 40° C. The precursor (1-2 mg) was then spreaded on the top of the acidified nonwoven layer and exposed to the test relative humidity maintained in a hermetically 1 L glass jar using silica gel (0% RH) or saturated salt solutions (magnesium nitrate, 53% RH; sodium chloride, 75% RH; potassium nitrate, 94% RH) (FIG. 1) (ASTM Standard E104-02 2012; Greenspan, 1977). EF release, expressed in milligram of EF per milligram of precursor per litre of headspace air, was determined using the headspace analysis system described above.
as §2, §3

[5] = Dispersion of precursor particulates in water; format: physicochemical; settings: 5 h of stirring
adult weevils = settings: 50-55 g/m^3 headspace concentration at 4-8° C. for 24 h, apple; cited from earlier work
[6] = tested on: test insects in the wheat, split faba beans and sorghum bins; settings: 85 g/t for 4 h followed by second 85 g/t treatment, unsealed metal bins; cited from earlier work
[7] = tested on: Rhizopus stolonifer, Colletotrichum musae, Erwinia carotovora, and Pseudomonas aeruginosa; settings: EF vapor, agar medium; cited from earlier work
Penicillium digitatum = settings: EF vapor 6.5-11.5 mmol/dish, agar medium; cited from earlier work
[8] = tested on: Saccharomyces rouxii and Saccharomyces mellis; settings: EF at 3 mL/lb on Deglet Noor dates; cited from earlier work
[9] = 25 °C, fitted pseudo-first order model, listed as A
[10] = 25 °C, fitted pseudo-first order model, listed as B

CCOC=NNC(=O)CCCCC(=O)NN=COCC [EF precursor, diethyl N,N′-adipoyldiformohydrazonate]
changes in the amount of EF released after storage ([1]; stored at 0% RH, days 1, 15 and 30): no significant (p>0.05) changes
reduction in EF release ([1]; stored at 60% RH, after 15 days): 18%
reduction in EF release ([1]; stored at 60% RH, after 30 days): 45%
reduction in EF release ([1]; stored at 100% RH, 15 days): 62%
reduction in EF release ([1]; stored at 100% RH, 30 days): 81%
mortality ([2]; after 2 h, 1 mg EF (2.5 mg precursor), 1 L jar with 40 g of blueberries): 63%
mortality ([2]; after 2 h, 1 mg EF, jars without blueberries): 16%
mortality ([2]; after 2 h, 3 mg EF (7.5 mg precursor), 1 L jar with 40 g of blueberries): 96%
mortality ([2]; after 2 h, 3 mg EF, jars without blueberries): 60%
mortality ([2]; at 4 h, all the concentrations): 100%

CCOC=NNC(=O)CCCCC(=O)NN=COCC [Precursor A, diethyl N,N′-adipoyldiformohydrazonate]
EF released ([3]; 25 °C, listed as A): 89.0 ± 1.5%
Ce [3, 9]: 0.350 ± 0.005^a mg/mg · L
k [3, 9]: 0.037 ± 0.000^a min^−1

CCOC=NNC(=O)CCCCC(=O)NN=COCC [Precursor B, diethyl N,N′-adipoyldiformohydrazonate]
Ce ([3]; 5 °C, fitted model): 0.792 ± 0.004^c mg/mg · L
k ([3]; 5 °C, fitted model): 0.004 ± 0.001^d min^−1
Ce ([3]; 15 °C, fitted model): 0.456 ± 0.014^a, b mg/mg · L
k ([3]; 15 °C, fitted model): 0.010 ± 0.000^c min^−1
EF released ([3]; 25 °C, listed as B): 97.9 ± 2.0%
EF released ([3]; 25 °C, mg EF per mg precursor per L headspace): 0.38±0.002 mg/mg · L and 0.382 ± 0.008^a mg/mg · L
Ce [3, 10]: 0.389 ± 0.007^a, b mg/mg · L
k [3, 10]: 0.030 ± 0.001^b min^−1
EF release ([4]; 0% RH, acid-dispersed substrate): no release was observed
Ce ([4]; 53% RH): 0.072 ± 0.013^c mg/mg · L
k ([4]; 53% RH): 0.006 ± 0.001^b min^−1
Ce ([4]; 75% RH): 0.200 ± 0.037^b mg/mg · L
k ([4]; 75% RH): 0.024 ± 0.004^a min^−1
Ce ([4]; 94% RH): 0.333 ± 0.019^a mg/mg · L
k ([4]; 94% RH): 0.026 ± 0.002^a min^−1
dispersibility of precursor particulates in water [5]: agglomerates presisted even after 5 h of stirring

ethyl formate [EF]
mortality (adult weevils): 100%
insect control [6]: high level of control
germicidal concentration [7]: 6.5-11.5 mmol/dish
growth inhibition (Penicillium digitatum): did not show complete inhibit
microbial growth inhibition [8]: able to inhibit the microbial growth
